Assay results from patent publication US9969726B2, “Metabotropic glutamate receptor negative allosteric modulators (NAMS) and uses thereof” (Sanford-Burnham Medical Research Institute, priority 2014, dated 2018).
Read-outs that look alike come from different tables or passages of the source.

Assays:
rat mGlu2 receptor = rat mGlu2 receptor (Rattus norvegicus (Rat), UniProt P31421); assay: mGlu2 in vitro GIRK thallium flux assay; assay type: cell-based; details: NAM, EC80 glutamate, HEK-293 GIRK cells
Experimental: (§1) All cell culture reagents were purchased from Invitrogen Corp. (Carlsbad, Calif.) unless otherwise noted. Compound activity at the group II (mGlu2 and mGlu3) mGlus was assessed using thallium flux through GIRK channels. Briefly, cells were plated into 384-well, black-walled, clear-bottomed poly-D-lysine-coated plates at a density of 15,000 cells/20 μL/well in DMEM containing 10% dialyzed FBS, 20 mM HEPES, and 100 units/mL penicillin/streptomycin (assay media). Plated cells were incubated overnight at 37° C. in the presence of 5% CO2. […] Cells were incubated for 1 h at room temperature, and the dye exchanged to assay buffer using an ELX405, leaving 20 μL/well. Test compounds were diluted to 2 times their final desired concentration in assay buffer (0.3% DMSO final concentration). […] Cell plates and compound plates were loaded onto a kinetic imaging plate reader (FDSS 6000 or 7000; Hamamatsu Corporation, Bridgewater, N.J.). Appropriate baseline readings were taken (10 images at 1 Hz; excitation, 470±20 nm; emission, 540±30 nm) and test compounds were added in a 20 μL volume and incubated for either 2.5 min or 60 min as indicated before the addition of 10 μL of thallium buffer with or without agonist. After the addition of agonist, data were collected for approximately an additional 2.5 min. Data were analyzed using Excel (Microsoft Corp, Redmond, Wash.). The slope of the fluorescence increase beginning 5 s after thallium/agonist addition and ending 15 s after thallium/agonist addition was calculated, corrected to vehicle and maximal agonist control slope values, and plotted in using either XLfit (ID Business Solutions Ltd) or Prism software (GraphPad Software, San Diego, Calif.) to generate concentration-response curves. Potencies were calculated from fits using a four-point parameter logistic equation. For concentration-response curve experiments, compounds were serially diluted 1:3 into 10 point concentration response curves and were transferred to daughter plates using an Echo acoustic plate reformatter (Labcyte, Sunnyvale, Calif.). Test compounds were applied and followed by EC80 concentrations of glutamate.

rat mGlu3 receptor = rat mGlu3 receptor (Rattus norvegicus (Rat), UniProt P31422); assay: mGlu3 in vitro GIRK thallium flux assay; assay type: cell-based; details: NAM; 2.5 min compound incubation; EC80 glutamate; HEK-293 GIRK cells
Experimental: as §1

[1] = 2.5 min compound incubation, read-out: mGlu2 EC50 (μM) (2.5 min)
[2] = read-out: mGlu2 EC50 (μM) (60 min), 60 min compound incubation
[3] = mGlu2 EC50 (μM) (60 min), 60 min compound incubation

Sequence of rat mGlu3 receptor (P31422 23-879): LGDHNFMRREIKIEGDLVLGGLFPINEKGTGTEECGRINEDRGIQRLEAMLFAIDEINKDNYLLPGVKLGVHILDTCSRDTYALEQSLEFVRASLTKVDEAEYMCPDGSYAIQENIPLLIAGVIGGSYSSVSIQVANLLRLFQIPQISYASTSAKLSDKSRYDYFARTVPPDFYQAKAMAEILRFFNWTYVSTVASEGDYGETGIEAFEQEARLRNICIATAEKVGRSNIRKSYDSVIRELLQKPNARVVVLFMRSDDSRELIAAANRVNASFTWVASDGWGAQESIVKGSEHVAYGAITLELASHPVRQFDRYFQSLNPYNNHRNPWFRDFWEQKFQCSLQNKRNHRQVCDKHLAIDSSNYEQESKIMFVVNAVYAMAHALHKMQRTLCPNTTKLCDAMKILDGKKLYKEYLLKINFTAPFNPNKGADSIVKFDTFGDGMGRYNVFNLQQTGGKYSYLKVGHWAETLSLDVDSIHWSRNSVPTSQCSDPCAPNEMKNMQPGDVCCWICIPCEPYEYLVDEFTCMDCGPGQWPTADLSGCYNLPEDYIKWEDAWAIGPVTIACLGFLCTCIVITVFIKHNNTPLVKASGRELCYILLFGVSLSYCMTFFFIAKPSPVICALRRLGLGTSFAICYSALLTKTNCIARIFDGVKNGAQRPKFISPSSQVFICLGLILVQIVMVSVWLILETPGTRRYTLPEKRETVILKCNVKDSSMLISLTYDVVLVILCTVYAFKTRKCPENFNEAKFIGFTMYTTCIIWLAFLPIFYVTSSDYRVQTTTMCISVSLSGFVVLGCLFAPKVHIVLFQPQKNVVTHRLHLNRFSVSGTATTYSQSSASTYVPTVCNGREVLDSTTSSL
Sequence of rat mGlu2 receptor (P31421 19-872): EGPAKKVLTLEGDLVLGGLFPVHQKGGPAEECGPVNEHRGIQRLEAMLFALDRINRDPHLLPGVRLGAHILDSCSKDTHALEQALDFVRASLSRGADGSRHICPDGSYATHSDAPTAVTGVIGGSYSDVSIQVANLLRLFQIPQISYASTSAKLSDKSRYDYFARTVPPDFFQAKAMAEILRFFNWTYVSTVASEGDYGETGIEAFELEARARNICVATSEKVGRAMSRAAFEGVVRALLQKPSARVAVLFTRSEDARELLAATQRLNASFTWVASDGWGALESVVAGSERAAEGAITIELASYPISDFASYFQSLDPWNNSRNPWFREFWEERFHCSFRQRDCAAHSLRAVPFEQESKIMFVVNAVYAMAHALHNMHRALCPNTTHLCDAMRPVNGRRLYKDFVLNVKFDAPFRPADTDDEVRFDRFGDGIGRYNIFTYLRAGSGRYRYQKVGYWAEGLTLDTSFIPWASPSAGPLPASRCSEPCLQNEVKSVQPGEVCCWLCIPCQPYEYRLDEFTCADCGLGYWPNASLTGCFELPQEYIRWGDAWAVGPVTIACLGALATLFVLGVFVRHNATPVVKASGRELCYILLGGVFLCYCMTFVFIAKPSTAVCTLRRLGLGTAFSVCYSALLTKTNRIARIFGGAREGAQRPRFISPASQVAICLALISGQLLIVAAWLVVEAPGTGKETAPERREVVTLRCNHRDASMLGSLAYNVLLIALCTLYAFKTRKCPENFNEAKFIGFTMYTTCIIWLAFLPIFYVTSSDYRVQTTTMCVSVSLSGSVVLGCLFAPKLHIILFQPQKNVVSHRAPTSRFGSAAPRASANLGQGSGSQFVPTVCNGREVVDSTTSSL

| Compound | EC50 (rat mGlu2 receptor; [1]) [µM] | EC50 (rat mGlu2 receptor; [2]) [µM] | EC50 (rat mGlu3 receptor) [µM] | EC50 (rat mGlu2 receptor; [3]) [µM] |
| --- | --- | --- | --- | --- |
| COc1ccc(-c2cc(C(F)(F)F)nc(-c3cccc(-c4ccc(F)c(C(=O)O)c4)c3)n2)cn1 [Example 120, 4-Fluoro-3′-(4-(6-methoxypyridin-3-yl)-6-(trifluoromethyl)pyrimidin-2-yl)-[1,1′-biphenyl]-3-carboxylic Acid] | 1.43 | 0.35 | 1.41 | – |
| O=C(O)c1cc(-c2cccc(-c3nsc(-c4ccoc4)n3)c2)ccc1F [Example 42, 4-Fluoro-3′-(5-(furan-3-yl)-1,2,4-thiadiazol-3-yl)biphenyl-3-carboxylic Acid] | 3.63 | – | > 10 | 3.71 |
| N#Cc1cccc(-c2cccc(-c3csc(-c4ccccc4)n3)c2)c1 [Example 14, 3′-(2-Phenylthiazol-4-yl)biphenyl-3-carbonitrile] | > 30 | > 10 | > 30 | – |
| Nc1cccc(-c2cn(-c3nc(-c4ccc(C(F)(F)F)nc4)cc(C(F)(F)F)n3)cn2)c1 [Example 126, 3-(1-(4-(Trifluoromethyl)-6-(6-(trifluoromethyl)pyridin-3-yl)pyrimidin-2-yl)-1H-imidazol-4-yl)aniline] | > 30 | > 10 | > 30 | – |
| Cc1cc2c(cc1C(F)(F)F)NC(=O)CC(c1cccc(Oc3ccccn3)c1)N2 (racemic) [Example 165, 7-Methyl-4-(3-(pyridin-2-yloxy)phenyl)-8-(trifluoromethyl)-4,5-dihydro-1H-benzo[b][1,4]diazepin-2(3H)-one] | 4.37 | – | 3.47 | 1.47 |
| COc1ccc(-c2cccc(-c3nc(-c4ccco4)cc(C(F)(F)F)n3)c2)cc1C(=O)O [Example 90, 3′-(4-(Furan-2-yl)-6-(trifluoromethyl)pyrimidin-2-yl)-4-methoxybiphenyl-3-carboxylic Acid] | 3.68 | 2.49 | > 10 | – |
| CONC(=O)c1cc(-c2cccc(-c3nc(-c4ccoc4)cc(C(F)(F)F)n3)c2)ccc1F [Example 132, 4-Fluoro-3′-(4-(furan-3-yl)-6-(trifluoromethyl)pyrimidin-2-yl)-N-methoxy-[1,1′-biphenyl]-3-carboxamide] | > 10 | 7.1 | 5.26 | – |
| O=C(O)c1cc(-c2cccc(Nc3nc(-c4ccco4)cc(C(F)(F)F)n3)c2)ccc1F [Example 127, 4-Fluoro-3′-(4-(furan-2-yl)-6-(trifluoromethyl)pyrimidin-2-ylamino)biphenyl-3-carboxylic Acid] | 5.33 | > 10 | 3.9 | – |
| O=C(O)c1cc(F)cc(-c2cccc(-c3nsc(-c4ccccc4)n3)c2)c1 [Example 40, 5-Fluoro-3′-(5-phenyl-1,2,4-thiadiazol-3-yl)biphenyl-3-carboxylic Acid] | 0.4 | – | 2.78 | 0.1 |
| O=C(O)c1cc(-c2cccc(-c3nc(/C=C/c4ccccc4)cc(C(F)(F)F)n3)c2)ccc1F [Example 95, (E)-4-Fluoro-3′-(4-styryl-6-(trifluoromethyl)pyrimidin-2-yl)biphenyl-3-carboxylic Acid] | > 10 | – | > 10 | – |
| O=C(O)c1cccc(-c2cccc(-c3nc(-c4ccccc4)nn3-c3ccccc3)c2)c1 [Example 66, 3′-(1,3-Diphenyl-1H-1,2,4-triazol-5-yl)-[1,1′-biphenyl]-3-carboxylic Acid] | > 10 | > 10 | > 10 | – |
| O=C(O)c1cccc(-c2cccc(-c3nc(-c4ccccc4)n(-c4cccc(F)c4)n3)c2)c1 [Example 56, 3′-(1-(3-Fluorophenyl)-5-phenyl-1H-1,2,4-triazol-3-yl)-[1,1′-biphenyl]-3-carboxylic Acid] | 3.22 | – | > 10 | > 10 |
| O=C(O)c1cc(-c2cccc(-c3nc(-c4cc5ccccc5s4)cc(C(F)(F)F)n3)c2)ccc1F [Example 102, 3′-(4-(Benzo[b]thiophen-2-yl)-6-(trifluoromethyl)pyrimidin-2-yl)-4-fluorobiphenyl-3-carboxylic Acid] | 3.33 | 0.88 | 3.12 | – |
| O=C(O)c1cc(F)cc(-c2cccc(-c3nc(-c4ccoc4)cc(C(F)(F)F)n3)c2)c1 [Example 113, 5-Fluoro-3′-(4-(furan-3-yl)-6-(trifluoromethyl)pyrimidin-2-yl)biphenyl-3-carboxylic Acid] | 0.4 | 0.23 | 1.15 | – |
| CC(C)(C)c1ccc(-c2cc(C(F)(F)F)nc(-c3cccc(-c4ccc(F)c(C(=O)O)c4)c3)n2)cc1 [Example 96, 3′-(4-(4-tert-Butylphenyl)-6-(trifluoromethyl)pyrimidin-2-yl)-4-fluorobiphenyl-3-carboxylic Acid] | 5.38 | 1.08 | 6.11 | – |
| Cc1cc2c(cc1C(F)(F)F)NC(=O)CC(c1cccc(Oc3ccccc3)c1)=N2 [Example 143, 7-Methyl-4-(3-phenoxyphenyl)-8-(trifluoromethyl)-1H-benzo[b][1, 4]diazepin-2 (3H)-one] | 2.21 | – | 2.62 | 1.19 |
| O=C(O)c1cccc(-c2cccc(-c3csc(/C=C/c4ccccc4)n3)c2)c1 [Example 36, (E)-3′-(2-Styrylthiazol-4-yl)biphenyl-3-carboxylic Acid] | 3.47 | – | > 10 | > 10 |
| O=C1CC(c2ccnc(Cl)c2)=Nc2ccc(-c3ccccc3)cc2N1 [Example 197, 4-(2-Chloropyridin-4-yl)-8-phenyl-1,3-dihydro-2H-benzo[b][1,4]diazepin-2-one] | > 10 | – | > 10 | – |
| O=C(O)c1cccc(-c2cccc(-c3csc(-c4cccc5ccccc45)n3)c2)c1 [Example 30] | > 10 | – | > 30 | > 10 |
| O=C(O)c1ccc(-c2cccc(-c3nc(-c4ccc(C(F)(F)F)nc4)cc(C(F)(F)F)n3)c2)s1 [Example 80, 5-(3-(4-(Trifluoromethyl)-6-(6-(trifluoromethyl)pyridin-3-yl)pyrimidin-2-yl)phenyl)thiophene-2-carboxylic Acid] | 0.78 | 0.13 | 2.4 | – |
| O=C(O)c1cccc(-c2cccc(-c3nsc(-c4ccccc4)n3)c2)c1 [Example 39, 3′-(5-Phenyl-1,2,4-thiadiazol-3-yl)biphenyl-3-carboxylic Acid] | 0.32 | – | 2.28 | 0.05 |
| O=C(O)c1ccc(F)c(-c2cccc(-c3csc(-c4ccccc4)n3)c2)c1 [Example 11, 6-Fluoro-3′-(2-phenylthiazol-4-yl)biphenyl-3-carboxylic Acid] | 1.59 | – | > 30 | 3.4 |
| O=C(O)c1cccc(-c2cccc(-c3nc(-c4ccccc4)n(-c4cccc5ccccc45)n3)c2)c1 [Example 57, 3′-(1-(Naphthalen-1-yl)-5-phenyl-1H-1,2,4-triazol-3-yl)-[1,1′-biphenyl]-3-carboxylic Acid] | > 10 | – | > 10 | > 10 |
| O=C(O)c1cc(-c2cccc(Sc3nc(-c4ccco4)cc(C(F)(F)F)n3)c2)ccc1F [Example 129, 4-Fluoro-3′-(4-(furan-2-yl)-6-(trifluoromethyl)pyrimidin-2-ylthio)biphenyl-3-carboxylic Acid] | > 10 | 3.25 | > 10 | – |
